Among the data in ChEMBL document CHEMBL3091457, “Design, synthesis, and biological activities of novel hexahydropyrazino[1,2-a]indole derivatives as potent inhibitors of apoptosis (IAP) proteins antagonists with improved membrane permeability across MDR1 expressing cells” (Bioorg Med Chem, 2013) are Papp, efflux ratio and GI50 values, retold here.

Data set [1] has as its target T1, MDR1 (ABCB1, P-glycoprotein) (Homo sapiens, UniProt P08183). The experiment in a line: Activity at human MDR1 expressed in pig LLC-PK1 cells assessed as apparent permeability at 10 umol/L after 2 hrs by LC-MS/MS analysis. The format is ADME, cell-based.
Data set [2] has as its target T1, MDR1 (ABCB1, P-glycoprotein). Put plainly: Activity at human MDR1 expressed in pig LLC-PK1 cells assessed as efflux ratio of permeability from basolateral to apical side over apical to basolateral side at 10 umol/L after 2 hrs by LC-MS/MS analysis. The data set is classed as ADME, cell-based.
For another data set, the system named is MDA-MB-231. Put plainly: Growth inhibition of human MDA-MB-231 cells after 72 hrs by CellTiter-Glo assay. The format is functional. To be noted: MDA-MB-231, 72 h. In general terms: ATP-based viability assays read luminescence as a measure of living cells.

T1 sequence (P08183 whole entry): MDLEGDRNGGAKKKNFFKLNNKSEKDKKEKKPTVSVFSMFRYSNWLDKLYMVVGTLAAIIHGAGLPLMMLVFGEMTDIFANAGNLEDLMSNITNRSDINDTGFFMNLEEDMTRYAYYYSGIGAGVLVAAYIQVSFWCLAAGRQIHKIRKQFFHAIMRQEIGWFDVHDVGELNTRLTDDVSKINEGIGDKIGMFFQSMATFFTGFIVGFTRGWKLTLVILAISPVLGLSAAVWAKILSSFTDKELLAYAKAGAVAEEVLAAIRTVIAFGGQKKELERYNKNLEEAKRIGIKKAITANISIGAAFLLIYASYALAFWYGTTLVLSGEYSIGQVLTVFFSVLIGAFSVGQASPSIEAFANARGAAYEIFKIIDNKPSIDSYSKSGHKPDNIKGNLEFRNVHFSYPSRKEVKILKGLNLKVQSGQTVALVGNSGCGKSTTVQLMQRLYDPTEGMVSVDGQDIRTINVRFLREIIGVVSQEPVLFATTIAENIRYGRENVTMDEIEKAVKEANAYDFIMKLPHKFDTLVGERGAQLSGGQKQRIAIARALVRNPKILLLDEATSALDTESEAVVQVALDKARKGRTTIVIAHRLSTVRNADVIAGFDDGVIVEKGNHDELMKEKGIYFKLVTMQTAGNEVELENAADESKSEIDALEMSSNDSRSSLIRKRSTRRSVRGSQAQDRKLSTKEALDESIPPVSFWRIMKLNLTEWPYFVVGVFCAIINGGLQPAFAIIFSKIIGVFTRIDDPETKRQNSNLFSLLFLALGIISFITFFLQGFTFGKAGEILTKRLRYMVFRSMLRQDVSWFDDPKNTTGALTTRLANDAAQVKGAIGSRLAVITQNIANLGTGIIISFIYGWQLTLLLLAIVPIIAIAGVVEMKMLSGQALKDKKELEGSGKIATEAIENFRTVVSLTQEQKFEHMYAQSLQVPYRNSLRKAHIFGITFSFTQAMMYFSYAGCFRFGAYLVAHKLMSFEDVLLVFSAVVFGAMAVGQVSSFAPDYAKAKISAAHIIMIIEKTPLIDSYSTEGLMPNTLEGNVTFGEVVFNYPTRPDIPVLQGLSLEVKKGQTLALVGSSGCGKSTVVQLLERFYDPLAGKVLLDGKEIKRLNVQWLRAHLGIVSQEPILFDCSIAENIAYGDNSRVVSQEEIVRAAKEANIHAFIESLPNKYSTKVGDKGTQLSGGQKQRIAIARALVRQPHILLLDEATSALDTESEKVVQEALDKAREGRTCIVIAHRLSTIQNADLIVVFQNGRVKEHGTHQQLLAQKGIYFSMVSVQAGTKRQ

For orientation: Papp means a coefficient for how fast a substance crosses the barrier. For orientation: efflux ratio means the permeability from basolateral to apical divided by that in the opposite direction, in the common usage. `CCO[C@@H]1C[C@@H]2CN(C(=O)[C@@H](NC(=O)[C@H](C)NC)C3CCC(F)(F)CC3)[C@H](C(=O)N[C@@H]3CCOc4ccccc43)CN2C1`: the apparent permeability (Papp) at 2 h, 10 µM in data set [1] was 0.1 ×10⁻⁶ cm/s. Besides, the efflux ratio at 2 h, 10 µM in data set [2] turned out to be 24.

As a reminder, the GI50 is the concentration giving 50% growth inhibition. Read a high GI50 as less potent growth inhibition. Consider `CN[C@@H](C)C(=O)N[C@H](C(=O)N1C[C@H]2CCCN2C[C@H]1C(=O)N[C@@H]1CCOc2ccccc21)C1CCCCC1`, for which, in data set [1], the Papp at 2 h, 10 µM is 0.5 ×10⁻⁶ cm/s. For the same molecule, the GI50 in the data set with MDA-MB-231 is 5.7 nM.

In the case of `CN[C@@H](C)C(=O)N[C@H](C(=O)N1C[C@H]2Cc3ccccc3N2C[C@H]1C(=O)N[C@@H]1CCOc2ccccc21)C1CCCCC1`, the Papp at 2 h, 10 µM in data set [1] is 4.1 ×10⁻⁶ cm/s. In addition, in the data set on MDA-MB-231, the GI50 amounted to 15 nM.

Regarding `CC[C@H](NC)C(=O)N[C@H](C(=O)N1C[C@@H]2Cc3cc(Cl)cc(Cl)c3N2C[C@H]1C(=O)N[C@@H]1CCOc2ccccc21)C1CCCCC1`, the Papp at 2 h, 10 µM in data set [1] was found to be 7.5 ×10⁻⁶ cm/s. The same molecule returned a GI50 in the data set with MDA-MB-231 of 5.9 nM.

For `CC[C@H](NC)C(=O)N[C@H](C(=O)N1C[C@@H]2Cc3cc(Cl)ccc3N2C[C@H]1C(=O)N[C@@H]1CCOc2ccccc21)C1CCCCC1`, in data set [1], the Papp at 2 h, 10 µM is 6.4 ×10⁻⁶ cm/s.

Regarding `CC[C@H](NC)C(=O)N[C@H](C(=O)N1C[C@@H]2Cc3cc(C#N)ccc3N2C[C@H]1C(=O)N[C@@H]1CCOc2ccccc21)C1CCCCC1`, the Papp at 2 h, 10 µM in data set [1] came out at 1.4 ×10⁻⁶ cm/s. Besides, the GI50 with MDA-MB-231 is 1.9 nM.

As for `CN[C@@H](C)C(=O)N[C@H](C(=O)N1C[C@@H]2CCCN2C[C@H]1C(=O)N[C@@H]1CCOc2ccccc21)C1CCCCC1`, in data set [1], the Papp at 2 h, 10 µM was 0.3 ×10⁻⁶ cm/s. Moreover, in the data set on MDA-MB-231, the 50% growth inhibitory concentration (GI50) was 13 nM.

Molecule `CC[C@H](NC)C(=O)N[C@H](C(=O)N1C[C@H]2CCCN2C[C@H]1C(=O)N[C@@H]1CCOc2ccccc21)C1CCCCC1` had a GI50 in the data set with MDA-MB-231 of 4.6 nM.

Take `CC[C@H](NC)C(=O)N[C@H](C(=O)N1C[C@@H]2Cc3ccccc3N2C[C@H]1C(=O)N[C@@H]1CCOc2ccccc21)C1CCCCC1`: the Papp at 2 h, 10 µM in data set [1] turned out to be 2.5 ×10⁻⁶ cm/s. Further, the 50% growth inhibitory concentration (GI50) in the data set with MDA-MB-231 came to 1.8 nM.

With `CC[C@H](NC)C(=O)N[C@H](C(=O)N1C[C@H]2Cc3ccccc3N2C[C@H]1C(=O)N[C@@H]1CCOc2ccccc21)C1CCCCC1`, in data set [1], the Papp at 2 h, 10 µM was found to be 8.6 ×10⁻⁶ cm/s. Also, in the data set with MDA-MB-231, the GI50 stood at 4.4 nM.
